The results in this text go back to article PMC3250963, “Novel dimeric DOTA-coupled peptidic Y1-receptor antagonists for targeting of neuropeptide Y receptor-expressing cancers” (EJNMMI Research, 2011).

Bridge positions count the residues as written; N and C are the ends. Square brackets hold non-standard residues; d marks the D form. Peptide text beside a SMILES is read from it. I, II: the chains in the order shown. * marks the point of attachment. DOTA = O=C(O)CN1CCN(CC(=O)O)CCN(CC(=O)*)CCN(CC(=O)O)CC1; Nle = CCCC[C@H](N)C(=O)O; Dap = NC[C@H](N)C(=O)O

For experiment [1], the target named is T1, NPY Y2 receptor (Homo sapiens, UniProt P49146).
T1 construct: SH-SY5Y cells endogenously expressing Y2; endogenous in cells; host or cells: SH-SY5Y
T1 sequence (P49146 1-381): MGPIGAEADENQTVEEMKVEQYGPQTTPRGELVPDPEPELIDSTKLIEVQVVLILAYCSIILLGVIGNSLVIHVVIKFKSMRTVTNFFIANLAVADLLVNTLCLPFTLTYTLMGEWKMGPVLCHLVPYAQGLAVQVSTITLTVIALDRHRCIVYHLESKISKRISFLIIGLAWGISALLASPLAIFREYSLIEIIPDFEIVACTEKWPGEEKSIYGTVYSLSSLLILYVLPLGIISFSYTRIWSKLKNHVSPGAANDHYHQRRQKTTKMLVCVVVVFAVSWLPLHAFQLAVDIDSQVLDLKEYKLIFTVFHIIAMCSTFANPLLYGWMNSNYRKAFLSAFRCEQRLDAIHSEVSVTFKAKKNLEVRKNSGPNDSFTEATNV
Put plainly: Receptor autoradiography competition binding (125I-hPYY) on SH-SY5Y cell membrane pellet sections. The conditions noted are these: SH-SY5Y membrane pellets, 125I-hPYY displacement; n ≥ 3; read-out: Binding affinity Y2 (IC50). How it is done:
(§1) The neuroepithelioma cell line SK-N-MC endogenously expressing the NPY Y1 receptor was obtained from ATCC (HTB-10; LGC Standards, Teddington, Middlesex, UK) and cultured at 37°C and 5% CO2 in MEM with GlutaMax I and supplemented with 10% FBS, 100 U/ml penicillin and 100 μg/ml streptomycin, 1 mM MEM sodium pyruvate, and MEM non-essential amino acids (× 1). The neuroblastoma cell line SH-SY5Y endogenously expressing the NPY Y2 receptor, kindly provided by Dr. Paolo Paganetti (Novartis, Basel, Switzerland), was cultured at 37°C and 5% CO2 in MEM/Ham's F12 with GlutaMax I and supplemented with 10% FBS, 100 U/ml penicillin and 100 μg/ml streptomycin, 1 mM MEM sodium pyruvate, and MEM non-essential amino acids (× 1). All culture reagents were from Gibco BRL, Life Technologies, (Grand Island, NY, USA).
(§2) Binding affinities of the compounds were assessed using sections of cell membrane pellets of SK-N-MC for Y1 or SH-SY5Y for Y2, as described before. Briefly, membrane pellets were prepared and stored at -80°C, and receptor autoradiography was performed on 20-μm-thick cryostat (Microm HM 500, Walldorf, Germany) sections of the membrane pellets, mounted on microscope slides and stored at -20°C as previously described for other cell lines and receptors. The slides were preincubated in Krebs-Ringer solution (NaCl 119 mM, KCl 3.2 mM, KH2PO4 1.19 mM, MgSO4 1.19 mM, NaHCO3 25 mM, CaCl2 2.53 mM, D-glucose 10 mM; pH 7.4) for 60 min at room temperature. Then, they were incubated for 120 min in the incubation solution containing the Krebs-Ringer solution, 0.1% BSA, 0.05% bacitracin, and 10,000 cpm/100 μl of the ^125I-labeled human PYY (hPYY; 2,000 Ci/mmol; Anawa, Wangen, Switzerland). Membrane pellet sections were incubated with ^125I-hPYY in increasing concentrations ranging from 0.1 nM up to 1,000 nM of non-labeled hPYY, as control, or with the compounds to be tested. After the incubation, the slides were washed two times for 5 min and then rinsed four times in ice-cold preincubation solution. After drying, the slides were exposed to Kodak films Biomax MR® for 7 days. IC50 values were calculated after quantification of the data using a computer-assisted image processing system (Analysis Imaging System, Interfocus, Mering, Germany). Tissue standards (autoradiographic [^125I] and/or [^14C] microscales, GE Healthcare, Little Chalfont, UK) containing a known amount of isotope, cross-calibrated to tissue-equivalent ligand concentrations were used for quantification.

Experiment [2] concerns the target T2, NPY Y1 receptor (Homo sapiens, UniProt P25929).
T2 construct: SK-N-MC cells endogenously expressing Y1; host or cells: SK-N-MC
T2 sequence (P25929 1-384): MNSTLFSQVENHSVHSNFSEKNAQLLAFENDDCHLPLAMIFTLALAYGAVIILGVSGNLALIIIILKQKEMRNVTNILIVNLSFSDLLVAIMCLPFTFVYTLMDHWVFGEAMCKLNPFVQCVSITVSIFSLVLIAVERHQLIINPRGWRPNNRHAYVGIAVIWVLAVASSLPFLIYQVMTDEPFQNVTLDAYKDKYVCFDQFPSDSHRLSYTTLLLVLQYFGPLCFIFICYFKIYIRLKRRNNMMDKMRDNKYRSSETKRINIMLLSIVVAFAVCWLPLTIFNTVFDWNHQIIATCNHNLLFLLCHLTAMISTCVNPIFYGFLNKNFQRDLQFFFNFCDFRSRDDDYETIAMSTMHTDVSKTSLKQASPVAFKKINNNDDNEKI
Nature of the experiment: Receptor autoradiography competition binding (125I-hPYY) on SK-N-MC cell membrane pellet sections. The following applies: for IC50: SK-N-MC membrane pellets, 125I-hPYY displacement, mean ± SEM, n ≥ 3, read-out: Binding affinity Y1 (IC50). As for the experimental part: as §1, §2

By IC50 is commonly meant the point on the concentration scale where inhibition reaches its midpoint. Turning to `CCCC[C@H](NC(=O)[C@H](CCCNC(=N)N)NC(=O)[C@H](Cc1c[nH]c2ccccc12)NC(=O)[C@H](CSSC[C@H](NC(=O)[C@@H]1CCCN1C(=O)[C@H](CCCCN)NC(=O)[C@@H](N)[C@@H](C)CC)C(=O)N[C@@H](Cc1c[nH]c2ccccc12)C(=O)N[C@@H](CCCNC(=N)N)C(=O)N[C@@H](CCCC)C(=O)N[C@@H](CCCNC(=N)N)C(=O)N[C@@H](Cc1ccc(O)cc1)C(N)=O)NC(=O)[C@@H]1CCCN1C(=O)[C@H](CCCCN)NC(=O)[C@@H](N)[C@@H](C)CC)C(=O)N[C@@H](CCCNC(=N)N)C(=O)N[C@@H](Cc1ccc(O)cc1)C(N)=O` [Analog 9] (I: H-IKPCWR[Nle]RY-NH2 / II: H-IKPCWR[Nle]RY-NH2; disulfide I:4-II:4), the half-maximal inhibitory concentration (IC50) in experiment [1] is greater than 1000 nM; in experiment [2], 127 ± 50 nM. For `CC[C@H](C)[C@H](N)C(=O)N[C@@H](CC(N)=O)C(=O)N1CCC[C@H]1C(=O)N[C@@H](CSSC[C@H](NC(=O)[C@@H]1CCCN1C(=O)[C@H](CC(N)=O)NC(=O)[C@@H](N)[C@@H](C)CC)C(=O)N[C@@H](Cc1ccc(O)cc1)C(=O)N[C@@H](CCCNC(=N)N)C(=O)N[C@@H](CC(C)C)C(=O)N[C@@H](CCCNC(=N)N)C(=O)N[C@@H](Cc1ccc(O)cc1)C(N)=O)C(=O)N[C@@H](Cc1ccc(O)cc1)C(=O)N[C@@H](CCCNC(=N)N)C(=O)N[C@@H](CC(C)C)C(=O)N[C@@H](CCCNC(=N)N)C(=O)N[C@@H](Cc1ccc(O)cc1)C(N)=O` [Analog 1, Bis(31/31')[Pro^30, Cys^31, Tyr^32, Leu^34]NPY(28-36)-NH2, reference compound] (I: H-INPCYRLRY-NH2 / II: H-INPCYRLRY-NH2; disulfide I:4-II:4), in that order: greater than 1000 nM and 11 ± 7 nM. For `CCCC[C@H](NC(=O)[C@H](CCCNC(=N)N)NC(=O)[C@H](Cc1c[nH]c2ccccc12)NC(=O)[C@H](CSSC[C@H](NC(=O)[C@@H]1CCCN1C(=O)[C@H](CC(N)=O)NC(=O)[C@@H](N)[C@@H](C)CC)C(=O)N[C@@H](Cc1c[nH]c2ccccc12)C(=O)N[C@@H](CCCNC(=N)N)C(=O)N[C@@H](CCCC)C(=O)N[C@@H](CCCNC(=N)N)C(=O)N[C@@H](Cc1ccc(O)cc1)C(N)=O)NC(=O)[C@@H]1CCCN1C(=O)[C@H](CN)NC(=O)[C@@H](N)[C@@H](C)CC)C(=O)N[C@@H](CCCNC(=N)N)C(=O)N[C@@H](Cc1ccc(O)cc1)C(N)=O` [Analog 7] (I: H-I[Dap]PCWR[Nle]RY-NH2 / II: H-INPCWR[Nle]RY-NH2; disulfide I:4-II:4), in that order: greater than 1000 nM and 19 ± 5 nM.

As for `CCCC[C@H](NC(=O)[C@H](CCCNC(=N)N)NC(=O)[C@H](Cc1c[nH]c2ccccc12)NC(=O)[C@H](CSSC[C@H](NC(=O)[C@@H]1CCCN1C(=O)[C@H](CC(N)=O)NC(=O)[C@@H](N)[C@@H](C)CC)C(=O)N[C@@H](Cc1c[nH]c2ccccc12)C(=O)N[C@@H](CCCNC(=N)N)C(=O)N[C@@H](CCCC)C(=O)N[C@@H](CCCNC(=N)N)C(=O)N[C@@H](Cc1ccc(O)cc1)C(N)=O)NC(=O)[C@@H]1CCCN1C(=O)[C@H](CC(N)=O)NC(=O)[C@@H](N)[C@@H](C)CC)C(=O)N[C@@H](CCCNC(=N)N)C(=O)N[C@@H](Cc1ccc(O)cc1)C(N)=O` [Analog 3] (I: H-INPCWR[Nle]RY-NH2 / II: H-INPCWR[Nle]RY-NH2; disulfide I:4-II:4), the IC50 in experiment [1] was greater than 1000 nM; in experiment [2], 9 ± 3 nM.

As to `CCCC[C@H](NC(=O)[C@H](CCCNC(=N)N)NC(=O)[C@H](Cc1c[nH]c2ccccc12)NC(=O)[C@H](CSSC[C@H](NC(=O)[C@@H]1CCCN1C(=O)[C@H](CC(N)=O)NC(=O)[C@@H](NC(=O)CN1CCN(CC(=O)O)CCN(CC(=O)O)CCN(CC(=O)O)CC1)[C@@H](C)CC)C(=O)N[C@@H](Cc1c[nH]c2ccccc12)C(=O)N[C@@H](CCCNC(=N)N)C(=O)N[C@@H](CCCC)C(=O)N[C@@H](CCCNC(=N)N)C(=O)N[C@@H](Cc1ccc(O)cc1)C(N)=O)NC(=O)[C@@H]1CCCN1C(=O)[C@H](CC(N)=O)NC(=O)[C@@H](NC(=O)CN1CCN(CC(=O)O)CCN(CC(=O)O)CCN(CC(=O)O)CC1)[C@@H](C)CC)C(=O)N[C@@H](CCCNC(=N)N)C(=O)N[C@@H](Cc1ccc(O)cc1)C(N)=O` [Analog 4] (I: {DOTA}-INPCWR[Nle]RY-NH2 / II: {DOTA}-INPCWR[Nle]RY-NH2; disulfide I:4-II:4), the IC50 in experiment [1] was greater than 1000 nM; in experiment [2], 294 ± 33 nM. Turning to `CCCC[C@H](NC(=O)[C@H](CCCNC(=N)N)NC(=O)[C@H](Cc1c[nH]c2ccccc12)NC(=O)[C@H](CSSC[C@H](NC(=O)[C@@H]1CCCN1C(=O)[C@H](CC(N)=O)NC(=O)[C@@H](N)[C@@H](C)CC)C(=O)N[C@@H](Cc1c[nH]c2ccccc12)C(=O)N[C@@H](CCCNC(=N)N)C(=O)N[C@@H](CCCC)C(=O)N[C@@H](CCCNC(=N)N)C(=O)N[C@@H](Cc1ccc(O)cc1)C(N)=O)NC(=O)[C@@H]1CCCN1C(=O)[C@H](CNC(=O)CN1CCN(CC(=O)O)CCN(CC(=O)O)CCN(CC(=O)O)CC1)NC(=O)[C@@H](N)[C@@H](C)CC)C(=O)N[C@@H](CCCNC(=N)N)C(=O)N[C@@H](Cc1ccc(O)cc1)C(N)=O` [Analog 8] (I: H-I[Dap](DOTA)PCWR[Nle]RY-NH2 / II: H-INPCWR[Nle]RY-NH2; disulfide I:4-II:4), the IC50 is greater than 1000 nM in experiment [1] and 29 ± 7 nM in experiment [2]. Consider `CC[C@H](C)[C@H](NC(=O)CN1CCN(CC(=O)O)CCN(CC(=O)O)CCN(CC(=O)O)CC1)C(=O)N[C@@H](CC(N)=O)C(=O)N1CCC[C@H]1C(=O)N[C@@H](CSSC[C@H](NC(=O)[C@@H]1CCCN1C(=O)[C@H](CC(N)=O)NC(=O)[C@@H](NC(=O)CN1CCN(CC(=O)O)CCN(CC(=O)O)CCN(CC(=O)O)CC1)[C@@H](C)CC)C(=O)N[C@@H](Cc1ccc(O)cc1)C(=O)N[C@@H](CCCNC(=N)N)C(=O)N[C@@H](CC(C)C)C(=O)N[C@@H](CCCNC(=N)N)C(=O)N[C@@H](Cc1ccc(O)cc1)C(N)=O)C(=O)N[C@@H](Cc1ccc(O)cc1)C(=O)N[C@@H](CCCNC(=N)N)C(=O)N[C@@H](CC(C)C)C(=O)N[C@@H](CCCNC(=N)N)C(=O)N[C@@H](Cc1ccc(O)cc1)C(N)=O` [Analog 2] (I: {DOTA}-INPCYRLRY-NH2 / II: {DOTA}-INPCYRLRY-NH2; disulfide I:4-II:4), for which the IC50 in experiment [1] is greater than 1000 nM; in experiment [2], 143 ± 37 nM. With “hPYY: non-labeled human peptide YY, used as control in the binding assay [reference compound]”, the “Y1 binding affinity in words (displacement of 125I-hPYY)” value in experiment [2] (SK-N-MC cell membrane pellet sections) is reported as “high-affinity displacements of ^125I-hPYY”.
